This test concerns the target Human immunodeficiency virus type 1 integrase (Human immunodeficiency virus 1, UniProt Q7ZJM1). The test is described as follows: Inhibitory activity against HIV-1 Integrase (HIV-1-IN).

Structures are written as SMILES.

One may read the IC50 as the point on the concentration scale where inhibition reaches its midpoint.

Sequence of Human immunodeficiency virus type 1 integrase (Q7ZJM1 whole entry): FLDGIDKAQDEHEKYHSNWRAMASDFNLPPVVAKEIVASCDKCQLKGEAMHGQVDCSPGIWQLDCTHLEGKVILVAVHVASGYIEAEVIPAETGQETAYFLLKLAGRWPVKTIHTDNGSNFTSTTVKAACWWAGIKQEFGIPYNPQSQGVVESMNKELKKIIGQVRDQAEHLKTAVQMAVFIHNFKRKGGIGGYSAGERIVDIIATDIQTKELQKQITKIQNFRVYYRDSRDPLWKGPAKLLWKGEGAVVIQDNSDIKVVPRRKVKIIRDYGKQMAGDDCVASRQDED

For `O=C(/C=C/c1ccc(O)c(O)c1)CCc1ccccc1`, half-maximal inhibition (IC50) was put at 100 µM.

The molecule `COc1ccc(/C=C/C(=O)/C=C(O)/C=C/c2ccc(OC)c(OC)c2)cc1OC` showed a concentration for half-maximal inhibition (IC50) of 100 µM.

With `O=C(/C=C/c1ccc(O)cc1)/C=C/c1ccc(O)cc1`, the IC50 was 100 µM.

In the case of `O=C(/C=C(O)/C=C/c1ccccc1)/C=C/c1ccccc1`, the half-maximal inhibitory concentration (IC50) is 100 µM.

The molecule `O=C(/C=C/c1cc(O)ccc1O)OCCc1ccccc1` gave an IC50 of 100 µM.

For `COc1ccc(/C=C/C(=O)OCCc2ccccc2)cc1OC`, inhibition was half-maximal at 100 µM (IC50).

Regarding `COOC(=O)c1cc2ccc(O)c(O)c2cn1`, the IC50 was 14.1 µM.

Consider `COOC(=O)c1cc2cc(O)c(O)cc2cn1`, for which the IC50 was 100 µM. Compared with the last molecule, the IC50 is about 7.1-fold higher.

`O=C(NCc1ccccc1)c1cc2cc(O)c(O)cc2cn1` had an IC50 of 100 µM.

Regarding `O=C(/C=C/c1ccc(F)c(F)c1)OCCc1ccccc1`, the concentration for half-maximal inhibition (IC50) was 100 µM.

With `COOC(=O)c1ccc2c(O)c(O)ccc2c1`, the IC50 was 7.94 µM. Compared with the last molecule, the IC50 is about 13-fold lower.

With `COc1ccc(/C=C/C(=O)/C=C/c2ccc(OC)c(OC)c2)cc1OC`, it took 100 µM to reach half-maximal inhibition (IC50).

As for `COc1cc(/C=C/C(=O)OCCc2ccccc2)ccc1O`, half-maximal inhibition (IC50) required 100 µM.

Turning to `O=C(/C=C/c1ccc(O)cc1)CC(=O)/C=C/c1ccc(O)cc1` [BISDEMETHOXYCURCUMIN], the midpoint of inhibition, the IC50, lay at 100 µM.

The molecule `COc1cc(/C=C2\CCC/C(=C\c3ccc(O)c(OC)c3)C2=O)ccc1O` [CYCLOVALONE] had an IC50 of 100 µM.

The molecule `CCOC(=O)/C=C/c1ccc(O)c(O)c1` [ETHYL CAFFEATE] showed an IC50 of 100 µM.

In the case of `O=C(/C=C/c1ccc(O)cc1)c1ccc(O)cc1O` [ISOLIQUIRITIGENIN], it took 100 µM to reach half-maximal inhibition (IC50).

`COC(=O)/C=C/c1ccc(O)c(O)c1` [METHYLCAFFEATE] had an IC50 of 100 µM.
